In patent publication US10711040B2, “Low substituted polymyxins and compositions thereof” (priority 2014, dated 2020):
Several values for one entry are separate records, joined by “and”; a condition that tells them apart may be missing. Equal values may be shown once.

Tests used:
[1] = Tolerability in mice: clinical signs of toxicity, body weight, clinical scoring; settings: mouse, in vivo
Method: (§1) Mice were treated with a mixture comprising 93% mono(N^γ-bis-sulfomethyl) Polymyxin E1 or CMS for 5 days and were monitored for clinical signs of toxicity and urine concentrations of KIM-1. […] The normal range of KIM-1 in mouse urine, as stated in the ELISA kit instruction, is 456-8048 pg/ml.
(§2) The mixtures were received as dry powder and were dissolved in the vials in sterile saline to the concentration stated in table 1, immediately prior to injection.
(§3) Once a day for 5 days, mice were treated subcutaneously in the neck region with 0.2 ml corresponding to the doses stated in Table 1. The dosing was based on a mean weight of 28 g.
All the tested mixtures were well tolerated by mice as determined by body weight and clinical scoring.

[2] = test system: KIM-1 (kidney injury molecule-1); assay: Nephrotoxicity in mice, urinary KIM-1 by ELISA; format: in vivo; settings: 80 mg/kg subcutaneously once a day for 5 days; individual mice
Method: Nephrotoxicity was measured using KIM-1 (kidney injury molecule-1) as a biomarker of acute tubular necrosis.
as §1, §2, §3
Urine samples were collected at 24 hrs after the 2nd dosing and 4 hrs after the 5th dosing. Samples were stored at −80° C. until analysed for KIM-1 concentrations
Urine samples were thawed, centrifuged for 5 min at 2000 g and diluted ×50 prior to performing the ELISA according the instruction in the Quantikine ELISA mouse TIM-1/KIM-1/HAVCR Immunoassay kit.

[3] = test system: Pseudomonas aeruginosa (strain PAX11045); assay: Mouse model with pulmonary infection of Pseudomonas aeruginosa; format: in vivo; set-up: key to Clinical score at T = 19 / Clinical score at T = 22: 0: healthy; 1: minor clinical signs of infection and inflammation like piloerection in the skin, distress and social withdrawal; 2: moderate signs of infection like changed body position, changes in pattern of movement, lack of curiosity or changed activity.; 3: severe signs of infection like stiff movements, forced ventilation,; 4: severe pain, mouse was sacrificed immediately to minimize suffering; 5: The mouse was dead; settings: dose 10 mg/kg, peritoneal
Method: A mouse model with pulmonary infections of Pseudomonas aeruginosa (strain PAX11045) were treated with peritoneal administration of Polymyxin E1, CMS E1 and mono bis-sulfomethylated Polymyxin E1. CFU is the calculated number of colony forming units in the lung tissue after 22 hours except for the non-treatment group of mice.

Colistimethate sodium [CMS]
clinical signs of toxicity [1]: no clinical signs of toxicity

Gentamicin
Urinary KIM-1 concentrations after 5 doses [2]: 12850 pg/mL and 5900 pg/mL and 5750 pg/mL

Polymyxin E1 [Polymyxin-E1]
Clinical score at T = 19 ([3]; individual mice): 3 (6×) and 2 | Clinical score at T = 22 ([3]; individual mice): 4 (2×) and 2 and 3 (4×) | mean log10 CFU ([3]; lung tissue after 22 hours): 4.43 log10 CFU | log10 CFU lung ([3]; lung tissue after 22 hours, individual mice, 10 mg/kg): 5.65 log10 CFU and 4.08 log10 CFU and 6.06 log10 CFU and 4.05 log10 CFU and 3.78 log10 CFU and 3.70 log10 CFU and 3.72 log10 CFU
